We go through 2 compounds from ChEMBL document CHEMBL4308876, “Isolation and structure determination of a new lasso peptide specialicin based on genome mining” (Bioorg Med Chem, 2018).

Molecules are shown by their SMILES. Converted amounts (≈) assume the structure as drawn. Bridge positions count the residues as written; N and C are the ends. Peptide text beside a SMILES is read from it.

The subject of one assay is Bacillus subtilis. The assay can be described thus: Antibacterial activity against Bacillus subtilis after 24 hrs. The class given is functional.
A further assay relates to Micrococcus luteus. The assay can be described thus: Antibacterial activity against Micrococcus luteus after 24 hrs. The class given is functional.
Assay [1] relates to Human immunodeficiency virus 1. Nature of the assay: Antiviral activity against HIV-1 NL4-3 infected in human PM1/CCR5 cells after 7 days by WST-8 assay. Type of assay: functional, organism-based. As to conditions: Human immunodeficiency virus 1, NL4-3, PM1/CCR5, 168 h.
In the next assay the test system is Staphylococcus aureus. Nature of the assay: Antibacterial activity against Staphylococcus aureus after 24 hrs. Type of assay: functional.
A further assay deals with Pseudomonas aeruginosa. Nature of the assay: Antibacterial activity against Pseudomonas aeruginosa after 24 hrs. The class given is functional.
Another assay has as its system Escherichia coli. Nature of the assay: Antibacterial activity against Escherichia coli after 24 hrs. The class given is functional.

For the compound `CC(C)C[C@@H]1NC(=O)[C@@H]2CSSC[C@@H]3NC(=O)CNC(=O)[C@H](C)NC(=O)[C@H](Cc4ccccc4)NC(=O)[C@H](CC(=O)N2)NC(=O)[C@H](C(C)C)NC(=O)[C@H](CSSC[C@@H](C(=O)N[C@@H](Cc2ccccc2)C(=O)N[C@@H](Cc2c[nH]c4ccccc24)C(=O)O)NC(=O)[C@H](C(C)C)NC(=O)[C@H](C(C)C)NC(=O)[C@H](C)NC(=O)[C@H](Cc2ccc(O)cc2)NC(=O)CNC3=O)NC(=O)[C@H](CO)NC(=O)CNC(=O)[C@H](C(C)C)NC(=O)CNC1=O` (CLGVGSCVDFAGCGYAVVCFW-OH; disulfide 1-13, 7-19; lactam N-9), the MIC with Bacillus subtilis was more than 32 µg/mL; in the assay with Micrococcus luteus, 8 µg/mL (≈ 3.75 µM); in the assay on Staphylococcus aureus, more than 32 µg/mL; against Pseudomonas aeruginosa, more than 32 µg/mL; with Escherichia coli, more than 32 µg/mL. Also, the half-inhibitory concentration (IC50) in assay [1] stood at 7.2 µM.
Consider `CN(C)[C@@H]1C(O)=C(C(N)=O)C(=O)[C@@]2(O)C(O)=C3C(=O)c4c(O)cccc4[C@@](C)(O)[C@H]3C[C@@H]12` [TETRACYCLINE], for which the minimal inhibitory concentration (MIC) was found to be 1 µg/mL (≈ 2.25 µM) in the assay with Bacillus subtilis; 0.25 µg/mL (≈ 0.563 µM) in the assay with Micrococcus luteus; 0.125 µg/mL (≈ 0.281 µM) in the assay with Staphylococcus aureus; 4 µg/mL (≈ 9 µM) against Pseudomonas aeruginosa; 2 µg/mL (≈ 4.5 µM) with Escherichia coli.

For orientation: MIC means the least concentration at which growth counts as inhibited. A high value points to a less susceptible organism. One may read the IC50 as the concentration at which inhibition is half-maximal. Low readings indicate greater potency, high ones weaker potency.
